From PubChem BioAssay AID330 (DTP/NCI, 2004)
Values joined by “and” are separate entries in the source; they are usually repeats but may differ in a detail not shown here. Equal entries are not always repeated. Inconclusive results and toxic doses are left out.

Tested on: P388 leukemia ip, CD2F1 mice, survival T/C
Assay: NCI In Vivo Anticancer Drug Screen. Data for tumor model P388 Leukemia (intraperitoneal) in CD2F1 (CDF1) mice
Details: endpoint: median survival time, higher = longer survival
In short: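 Mice carrying the transplanted tumor received test compound or vehicle. Survival was recorded in each group, and the value is the treated-group measurement divided by that of the vehicle-treated control group.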

[1] = dose: 7.5 mg/kg/injection, schedule: Q01DX005 (ip), vehicle: saline with Tween-80
[2] = dose: 15.0 mg/kg/injection, schedule: Q01DX005 (ip), vehicle: saline with Tween-80
[3] = dose: 50.0 mg/kg/injection, schedule: Q01DX005 (ip), vehicle: Klucel (hydroxypropylcellulose) (HPC)
[4] = dose: 200.0 mg/kg/injection, schedule: Q01DX005 (ip), vehicle: Klucel (hydroxypropylcellulose) (HPC)
[5] = dose: 60.0 mg/kg/injection, schedule: Q01DX005 (ip), vehicle: saline with Tween-80
[6] = dose: 120.0 mg/kg/injection, schedule: Q01DX005 (ip), vehicle: saline with Tween-80
[7] = dose: 240.0 mg/kg/injection, schedule: Q01DX005 (ip), vehicle: saline with Tween-80
[8] = dose: 50.0 mg/kg/injection, schedule: Q01DX009 (ip), vehicle: Klucel (hydroxypropylcellulose) (HPC)
[9] = dose: 100.0 mg/kg/injection, schedule: Q01DX009 (ip), vehicle: Klucel (hydroxypropylcellulose) (HPC)
[10] = dose: 12.5 mg/kg/injection, schedule: Q01DX009 (ip), vehicle: saline with Tween-80
[11] = dose: 25.0 mg/kg/injection, schedule: Q01DX009 (ip), vehicle: saline with Tween-80
[12] = dose: 50.0 mg/kg/injection, schedule: Q01DX009 (ip), vehicle: saline with Tween-80
[13] = dose: 50.0 mg/kg/injection, schedule: Q01DX005 (ip), vehicle: saline with Tween-80
[14] = dose: 100.0 mg/kg/injection, schedule: Q01DX005 (ip), vehicle: saline with Tween-80
[15] = dose: 200.0 mg/kg/injection, schedule: Q01DX005 (ip), vehicle: saline with Tween-80

CCCCCCCCCCC1(O)OC(=O)C(C)=C1C (stereo not given)
T/C (dose: 12.5 mg/kg/injection, schedule: Q04DX003 (ip), vehicle: saline with Tween-80): 100 % of control | T/C (dose: 25.0 mg/kg/injection, schedule: Q04DX003 (ip), vehicle: saline with Tween-80): 101 % of control | T/C (dose: 50.0 mg/kg/injection, schedule: Q04DX003 (ip), vehicle: saline with Tween-80): 100 % of control

N#CC(C#N)=NNc1ccc([N+](=O)[O-])cc1Cl
T/C (dose: 6.25 mg/kg/injection, schedule: Q01DX009 (ip), vehicle: Klucel (hydroxypropylcellulose) (HPC)): 103 % of control | T/C (dose: 12.5 mg/kg/injection, schedule: Q01DX009 (ip), vehicle: Klucel (hydroxypropylcellulose) (HPC)): 103 % of control

COC1=C(OC)C(=O)C(COC2CCCCO2)=CC1=O (stereo not given)
T/C [1]: 98 % of control | T/C [2]: 103 % of control

CC1=C(C)C(=O)C2=C(OCCO2)C1=O
T/C (dose: 15.0 mg/kg/injection, schedule: Q01DX005 (ip), vehicle: Klucel (hydroxypropylcellulose) (HPC)): 100 % of control | T/C (dose: 30.0 mg/kg/injection, schedule: Q01DX005 (ip), vehicle: Klucel (hydroxypropylcellulose) (HPC)): 106 % of control | T/C (dose: 60.0 mg/kg/injection, schedule: Q01DX005 (ip), vehicle: Klucel (hydroxypropylcellulose) (HPC)): 104 % of control

Fc1ccc(C(Nc2nncs2)Nc2nncs2)cc1
T/C [3]: 111 % of control | T/C [4]: 152 % of control

CCOC(=O)CCc1c(-c2ccccc2)[nH]c2ccccc12
T/C [5]: 106 % of control | T/C [6]: 107 % of control | T/C [7]: 101 % of control

Cc1ccc(N2C(=O)CC3(CCCC3)C2=O)cc1Cl
T/C [8]: 104 % of control | T/C [9]: 108 % of control | T/C (dose: 200.0 mg/kg/injection, schedule: Q01DX009 (ip), vehicle: Klucel (hydroxypropylcellulose) (HPC)): 105 % of control

CN(C)c1ccc(C(Cl)[O][Sn]([Cl])([c]2ccccc2)[c]2ccccc2)cc1.[CH3][Sn]([CH3])([Cl])[Cl] (stereo not given)
T/C (dose: 1.56 mg/kg/injection, schedule: Q01DX005 (ip), vehicle: saline with Tween-80): 112 % of control | T/C (dose: 3.12 mg/kg/injection, schedule: Q01DX005 (ip), vehicle: saline with Tween-80): 113 % of control and 119 % of control | T/C (dose: 6.25 mg/kg/injection, schedule: Q01DX005 (ip), vehicle: saline with Tween-80): 109 % of control

CC1=C2CC3CCC(C)C2(CC1)C3(C)C (stereo not given)
T/C (dose: 50.0 mg/kg/injection, schedule: Q01DX009 (ip), vehicle: saline): 98 % of control | T/C (dose: 100.0 mg/kg/injection, schedule: Q01DX009 (ip), vehicle: saline): 95 % of control | T/C (dose: 100.0 mg/kg/injection, schedule: Q04DX003 (ip), vehicle: saline): 95 % of control | T/C (dose: 200.0 mg/kg/injection, schedule: Q01DX009 (ip), vehicle: saline): 95 % of control | T/C (dose: 200.0 mg/kg/injection, schedule: Q04DX003 (ip), vehicle: saline): 95 % of control | T/C (dose: 400.0 mg/kg/injection, schedule: Q04DX003 (ip), vehicle: saline): 100 % of control

c1ccc2c(c1)CCC1=C2S/C(=C2/SC3=C(S2)c2ccccc2CC3)S1
T/C [1]: 94 % of control | T/C [2]: 100 % of control | T/C (dose: 30.0 mg/kg/injection, schedule: Q01DX005 (ip), vehicle: saline with Tween-80): 100 % of control

O=c1c2cnccc2cc2n1CCc1c-2[nH]c2ccccc12
T/C (dose: 3.12 mg/kg/injection, schedule: Q01DX009 (ip), vehicle: saline with Tween-80): 101 % of control | T/C (dose: 6.25 mg/kg/injection, schedule: Q01DX009 (ip), vehicle: saline with Tween-80): 101 % of control and 86 % of control | T/C [10]: 101 % of control | T/C [11]: 110 % of control

CCOC(=O)c1ccc2c(c1)Nc1cc3ccccc3cc1N2
T/C (dose: 25.0 mg/kg/injection, schedule: Q01DX009 (ip), vehicle: saline + alcohol): 104 % of control | T/C (dose: 50.0 mg/kg/injection, schedule: Q01DX009 (ip), vehicle: saline + alcohol): 88 % of control | T/C (dose: 100.0 mg/kg/injection, schedule: Q01DX009 (ip), vehicle: saline + alcohol): 101 % of control

CSC(=NNC(N)=O)SC
T/C (dose: 100.0 mg/kg/injection, schedule: Q04DX003 (ip), vehicle: saline with Tween-80): 100 % of control | T/C (dose: 200.0 mg/kg/injection, schedule: Q04DX003 (ip), vehicle: saline with Tween-80): 102 % of control | T/C (dose: 400.0 mg/kg/injection, schedule: Q04DX003 (ip), vehicle: saline with Tween-80): 102 % of control

CC(C)N(C(=O)c1cccc(C(=O)N(C(C)C)C(C)C)n1)C(C)C
T/C [5]: 101 % of control | T/C [6]: 95 % of control | T/C [7]: 95 % of control

Cc1ccc(S(=O)(=O)N/N=C/c2c(Cl)n(C(=O)c3cccc(C)c3)c3ccccc23)cc1
T/C (dose: 50.0 mg/kg/injection, schedule: Q01DX001 (ip), vehicle: Klucel (hydroxypropylcellulose) (HPC)): 97 % of control | T/C (dose: 100.0 mg/kg/injection, schedule: Q01DX001 (ip), vehicle: Klucel (hydroxypropylcellulose) (HPC)): 90 % of control | T/C (dose: 200.0 mg/kg/injection, schedule: Q01DX001 (ip), vehicle: Klucel (hydroxypropylcellulose) (HPC)): 87 % of control

CC(NCCCSc1ccccc1)C(O)c1ccc(O)cc1 (stereo not given)
T/C [11]: 94 % of control | T/C [12]: 100 % of control

COc1ccc(N=C(Cl)c2ccc(Br)cc2)cc1
T/C [13]: 97 % of control | T/C [14]: 96 % of control | T/C [15]: 96 % of control

O=C(NC1c2ccccc2Oc2ccccc21)OC1CCCCC1
T/C [13]: 92 % of control | T/C [14]: 96 % of control | T/C [15]: 100 % of control

c1c[n+](CC2CO2)ccc1-c1cc[n+](CC2CO2)cc1 (stereo not given)
T/C (dose: 25.0 mg/kg/injection, schedule: Q01DX009 (ip), vehicle: Klucel (hydroxypropylcellulose) (HPC)): 120 % of control | T/C (dose: 40.0 mg/kg/injection, schedule: Q01DX009 (ip), vehicle: Klucel (hydroxypropylcellulose) (HPC)): 162 % of control | T/C [8]: 163 % of control | T/C (dose: 80.0 mg/kg/injection, schedule: Q01DX009 (ip), vehicle: Klucel (hydroxypropylcellulose) (HPC)): 159 % of control | T/C [9]: 161 % of control

COC(=O)c1ccc(=O)c2nc3/c(=C/O)c(O)c(C)c(=O)c3[nH]c12
T/C (dose: 6.25 mg/kg/injection, schedule: Q01DX005 (ip), vehicle: other): 117 % of control | T/C (dose: 12.5 mg/kg/injection, schedule: Q01DX005 (ip), vehicle: other): 122 % of control

CCn1c(Cl)c(/C=N\Nc2ccc([N+](=O)[O-])cc2)c2ccccc21
T/C (dose: 100.0 mg/kg/injection, schedule: Q01DX001 (ip), vehicle: saline): 94 % of control | T/C (dose: 200.0 mg/kg/injection, schedule: Q01DX001 (ip), vehicle: saline): 95 % of control | T/C (dose: 400.0 mg/kg/injection, schedule: Q01DX001 (ip), vehicle: saline): 95 % of control

CC(C)c1ccc2c[n+]3ccccc3cc2c1
T/C (dose: 6.25 mg/kg/injection, schedule: Q01DX005 (ip), vehicle: Klucel (hydroxypropylcellulose) (HPC)): 100 % of control and 108 % of control | T/C (dose: 12.5 mg/kg/injection, schedule: Q01DX005 (ip), vehicle: Klucel (hydroxypropylcellulose) (HPC)): 106 % of control and 112 % of control

FP1(c2ccccc2)(c2ccccc2)Nc2cc(C(c3ccccc3)(c3ccccc3)c3ccccc3)ccc2O1
T/C [10]: 104 % of control | T/C [11]: 98 % of control | T/C [12]: 92 % of control | T/C (dose: 200.0 mg/kg/injection, schedule: Q01DX009 (ip), vehicle: saline with Tween-80): 95 % of control

C[Se]C(C)(C)C(O)(Cc1ccccc1)c1ccccc1 (stereo not given)
T/C (dose: 25.0 mg/kg/injection, schedule: Q04DX002 (ip), vehicle: saline with Tween-80): 88 % of control | T/C (dose: 50.0 mg/kg/injection, schedule: Q04DX002 (ip), vehicle: saline with Tween-80): 94 % of control | T/C (dose: 100.0 mg/kg/injection, schedule: Q04DX002 (ip), vehicle: saline with Tween-80): 101 % of control

Cc1n[nH]c(=O)c(C#N)c1C
T/C [3]: 95 % of control | T/C (dose: 100.0 mg/kg/injection, schedule: Q01DX005 (ip), vehicle: Klucel (hydroxypropylcellulose) (HPC)): 100 % of control | T/C [4]: 95 % of control

Nc1nc2[nH]c(=O)c(=O)[nH]c2c(=O)[nH]1
T/C (dose: 50.0 mg/kg/injection, schedule: Q04DX003 (ip), vehicle: Klucel (hydroxypropylcellulose) (HPC)): 96 % of control | T/C (dose: 100.0 mg/kg/injection, schedule: Q04DX003 (ip), vehicle: Klucel (hydroxypropylcellulose) (HPC)): 97 % of control | T/C (dose: 200.0 mg/kg/injection, schedule: Q04DX003 (ip), vehicle: Klucel (hydroxypropylcellulose) (HPC)): 94 % of control | T/C (dose: 400.0 mg/kg/injection, schedule: Q04DX003 (ip), vehicle: Klucel (hydroxypropylcellulose) (HPC)): 105 % of control
